Data taken from US20070225371A1, “Dermatological composition containing alkyl ureas” (priority 2006, published 2007).

Experiments:
[1] = biological target: T1, RNase A (Bos taurus, UniProt P61823); test: Thermal denaturation of protein RNase A in urea or 1-butyl urea solution (Poklar et al.); type: biochemical; conditions: for 0.7 M of 1-butyl urea; estimated from temperature profiles of conformational transition of RNase A
T1 sequence (P61823 27-150): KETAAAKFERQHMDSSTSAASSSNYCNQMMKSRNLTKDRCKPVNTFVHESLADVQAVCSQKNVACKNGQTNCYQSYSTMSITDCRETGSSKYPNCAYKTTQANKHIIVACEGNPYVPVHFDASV
From the text: In their thermal denaturation studies of protein RNase A in alkyl urea solutions, Poklar et al., “Thermodynamic Stability of Ribonuclease A in Alkylurea Solutions and Preferential Solvation Changes Accompanying its Thermal Denaturation: A Calorimetric and Spectroscopic Study” in Protein Science, 8:832-840 (1999) report that the thermal stability of RNase A in solution decreases with increasing concentrations of denaturants and the size of the hydrophobic group substituted on the urea molecule.
Based on the temperature profiles of conformational transition (denaturation) of protein RNase A in urea or in 1-butyl urea solution, it can be estimated that 0.7 M of 1-butyl urea is equivalent to about 3.5 M of urea in terms of their protein denaturing capability. These studies provide a general guideline on estimating relative keratolytic activity of urea vs. 1-butyl urea in a dermatological composition.

[2] = equal to about 36 to 42% by weight; cited from earlier work

urea concentration equivalent in protein denaturing capability [1]	SMILES	concentration minimally needed to show any noticeable keratolytic or protein denaturing activity [2] [M]
about 3.5 M	CCCCNC(N)=O [1-butyl urea]	–
–	NC(N)=O [urea]	6 to 7
